Laboratory results as given in PubChem BioAssay (NCI).
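Following 48 hours of exposure in 96-well plates, responses at five concentrations were used to interpolate endpoints linearly. TGI: total growth inhibition.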

Key:
Experiment in all cases: growth of human tumour cells (NCI), 48 h
CAKI-1 renal = test system: CAKI-1 renal
SF-268 CNS = test system: SF-268 CNS
LOX IMVI melanoma = test system: LOX IMVI melanoma
HOP-92 NSCLC = test system: HOP-92 NSCLC
TK-10 renal = test system: TK-10 renal
A549 NSCLC = test system: A549 NSCLC
SN12C renal = test system: SN12C renal
SK-MEL-5 melanoma = test system: SK-MEL-5 melanoma
SK-OV-3 ovarian = test system: SK-OV-3 ovarian
SNB-75 CNS = test system: SNB-75 CNS
HOP-62 NSCLC = test system: HOP-62 NSCLC
MDA-MB-435 = test system: MDA-MB-435
HS 578T breast = test system: HS 578T breast
U251 CNS = test system: U251 CNS
OVCAR-8 ovarian = test system: OVCAR-8 ovarian
EKVX NSCLC = test system: EKVX NSCLC
MDA-MB-231 breast = test system: MDA-MB-231 breast
HCT-116 colon = test system: HCT-116 colon
MDA-N = test system: MDA-N
OVCAR-5 ovarian = test system: OVCAR-5 ovarian
UACC-62 melanoma = test system: UACC-62 melanoma
RXF 393 renal = test system: RXF 393 renal
SNB-19 CNS = test system: SNB-19 CNS
KM12 colon = test system: KM12 colon
ACHN renal = test system: ACHN renal
HCC-2998 colon = test system: HCC-2998 colon
NCI-H226 lung = test system: NCI-H226 lung
SF-539 CNS = test system: SF-539 CNS
SW-620 colon = test system: SW-620 colon
HT29 colon = test system: HT29 colon
NCI-H522 lung = test system: NCI-H522 lung
SK-MEL-2 melanoma = test system: SK-MEL-2 melanoma
OVCAR-4 ovarian = test system: OVCAR-4 ovarian
T-47D breast = test system: T-47D breast
HL-60(TB) leukemia = test system: HL-60(TB) leukemia
NCI-H23 lung = test system: NCI-H23 lung
A498 renal = test system: A498 renal
M14 melanoma = test system: M14 melanoma
MALME-3M melanoma = test system: MALME-3M melanoma
PC-3 prostate = test system: PC-3 prostate
786-0 renal = test system: 786-0 renal
NCI-H460 lung = test system: NCI-H460 lung
BT-549 breast = test system: BT-549 breast
K-562 leukemia = test system: K-562 leukemia
OVCAR-3 ovarian = test system: OVCAR-3 ovarian
NCI/ADR-RES ovarian = test system: NCI/ADR-RES ovarian
DU-145 prostate = test system: DU-145 prostate
UACC-257 melanoma = test system: UACC-257 melanoma
SK-MEL-28 melanoma = test system: SK-MEL-28 melanoma
HCT-15 colon = test system: HCT-15 colon
COLO 205 colon = test system: COLO 205 colon
MCF7 breast = test system: MCF7 breast
SF-295 CNS = test system: SF-295 CNS
CCRF-CEM leukemia = test system: CCRF-CEM leukemia
RPMI-8226 leukemia = test system: RPMI-8226 leukemia
SR leukemia = test system: SR leukemia
MOLT-4 leukemia = test system: MOLT-4 leukemia
IGROV1 ovarian = test system: IGROV1 ovarian
UO-31 renal = test system: UO-31 renal

In the case of `COc1ccc2nc3n(c2c1)CCc1cc(OC)c(OC)cc1-3`, the TGI (CAKI-1 renal) is reported as > 100 µM, the TGI (SF-268 CNS) is reported as > 100 µM and the TGI (LOX IMVI melanoma) is reported as > 100 µM. The TGI (HOP-92 NSCLC) was > 100 µM, the TGI (TK-10 renal) was > 100 µM and the TGI (A549 NSCLC) was > 100 µM. For the same compound, the TGI (SN12C renal) was > 100 µM, the TGI (SK-MEL-5 melanoma) was 47.2 µM and the TGI (SK-OV-3 ovarian) was > 100 µM. The TGI (SNB-75 CNS) was > 100 µM, the TGI (HOP-62 NSCLC) was > 100 µM and the TGI (MDA-MB-435) was > 100 µM. The TGI (HS 578T breast) was > 100 µM, the TGI (U251 CNS) was > 100 µM and the TGI (OVCAR-8 ovarian) was > 100 µM. For the same compound, the TGI (EKVX NSCLC) was > 100 µM, the TGI (MDA-MB-231 breast) was > 100 µM and the TGI (HCT-116 colon) was > 100 µM. The TGI (MDA-N) was > 100 µM, the TGI (OVCAR-5 ovarian) was > 100 µM and the TGI (UACC-62 melanoma) was > 100 µM. The TGI (RXF 393 renal) was > 100 µM, the TGI (SNB-19 CNS) was > 100 µM and the TGI (KM12 colon) was > 100 µM. For the same compound, the TGI (ACHN renal) was > 100 µM, the TGI (HCC-2998 colon) was 52.9 µM and the TGI (NCI-H226 lung) was > 100 µM. The TGI (SF-539 CNS) was > 100 µM, the TGI (SW-620 colon) was > 100 µM and the TGI (HT29 colon) was 95.8 µM. For the same compound, the TGI (NCI-H522 lung) was > 100 µM, the TGI (SK-MEL-2 melanoma) was > 100 µM and the TGI (OVCAR-4 ovarian) was > 100 µM. For the same compound, the TGI (T-47D breast) was > 100 µM, the TGI (HL-60(TB) leukemia) was > 100 µM and the TGI (NCI-H23 lung) was > 100 µM. For the same compound, the TGI (A498 renal) was > 100 µM, the TGI (M14 melanoma) was > 100 µM and the TGI (MALME-3M melanoma) was > 100 µM. The TGI (PC-3 prostate) was > 100 µM, the TGI (786-0 renal) was > 100 µM and the TGI (NCI-H460 lung) was > 100 µM. The TGI (BT-549 breast) was 99.2 µM, the TGI (K-562 leukemia) was > 100 µM and the TGI (OVCAR-3 ovarian) was > 100 µM. The TGI (NCI/ADR-RES ovarian) was > 100 µM, the TGI (DU-145 prostate) was > 100 µM and the TGI (UACC-257 melanoma) was > 100 µM. For the same compound, the TGI (SK-MEL-28 melanoma) was > 100 µM, the TGI (HCT-15 colon) was > 100 µM and the TGI (COLO 205 colon) was 90.8 µM. The TGI (MCF7 breast) was > 100 µM, the TGI (SF-295 CNS) was > 100 µM and the TGI (CCRF-CEM leukemia) was > 100 µM.
Work on `COC1(OC)c2no[n+]([O-])c2C(OC)(OC)c2c1no[n+]2[O-]` yielded a TGI (CAKI-1 renal) of 92.9 µM, a TGI (SF-268 CNS) of 73.3 µM and a TGI (LOX IMVI melanoma) of 33.5 µM. For the same compound, the TGI (TK-10 renal) was 31.5 µM, the TGI (A549 NSCLC) was 82 µM and the TGI (SN12C renal) was 54 µM. It also gave a TGI (SK-MEL-5 melanoma) of 28.6 µM, a TGI (SNB-75 CNS) of 83.3 µM and a TGI (HOP-62 NSCLC) of 35.8 µM. It also gave a TGI (RPMI-8226 leukemia) of 87.8 µM, a TGI (MDA-MB-435) of 36.2 µM and a TGI (HS 578T breast) of 97.7 µM. It also gave a TGI (SR leukemia) of 31.6 µM, a TGI (OVCAR-8 ovarian) of 26.7 µM and a TGI (EKVX NSCLC) of 41.6 µM. The TGI (MDA-MB-231 breast) was 32.9 µM, the TGI (HCT-116 colon) was 24.6 µM and the TGI (MDA-N) was 62.8 µM. It also gave a TGI (OVCAR-5 ovarian) of 43.6 µM, a TGI (UACC-62 melanoma) of 24.3 µM and a TGI (RXF 393 renal) of 58.7 µM. For the same compound, the TGI (SNB-19 CNS) was 59.5 µM, the TGI (MOLT-4 leukemia) was > 100 µM and the TGI (KM12 colon) was 24.2 µM. It also gave a TGI (ACHN renal) of 68.5 µM, a TGI (HCC-2998 colon) of 41.6 µM and a TGI (NCI-H226 lung) of 64 µM. For the same compound, the TGI (SF-539 CNS) was 38 µM, the TGI (SW-620 colon) was 35.8 µM and the TGI (HT29 colon) was 37.7 µM. The TGI (NCI-H522 lung) was 47.5 µM, the TGI (SK-MEL-2 melanoma) was 42 µM and the TGI (OVCAR-4 ovarian) was > 100 µM. The TGI (T-47D breast) was > 100 µM, the TGI (IGROV1 ovarian) was 51 µM and the TGI (UO-31 renal) was > 100 µM. For the same compound, the TGI (HL-60(TB) leukemia) was 87.6 µM, the TGI (NCI-H23 lung) was 28.2 µM and the TGI (A498 renal) was 34.6 µM. For the same compound, the TGI (M14 melanoma) was 26.9 µM, the TGI (MALME-3M melanoma) was 29.4 µM and the TGI (PC-3 prostate) was 66.6 µM. For the same compound, the TGI (786-0 renal) was 48.9 µM, the TGI (NCI-H460 lung) was > 100 µM and the TGI (K-562 leukemia) was > 100 µM. For the same compound, the TGI (OVCAR-3 ovarian) was 28.3 µM, the TGI (NCI/ADR-RES ovarian) was 62.8 µM and the TGI (DU-145 prostate) was > 100 µM. The TGI (UACC-257 melanoma) was 25 µM, the TGI (SK-MEL-28 melanoma) was 32.1 µM and the TGI (HCT-15 colon) was 67.4 µM. For the same compound, the TGI (COLO 205 colon) was 28.5 µM, the TGI (MCF7 breast) was 42.7 µM and the TGI (SF-295 CNS) was 80 µM. The TGI (CCRF-CEM leukemia) was 60.4 µM.
